# “Also recorded” adds a separate entry of the source.
# Experiments:
# [1] = cited from earlier work; for serum cholesterol levels: mice fed a low cholesterol diet; for elevated serum cholesterol levels: mice, induced by high cholesterol diets
# [2] = system: benign prostatic hyperplasia; settings: controlled double blind study; cited from earlier work
# [3] = system: tumor initiation and progression; settings: long-term rat studies; cited from earlier work
# [4] = system: LNCaP cells transfected with HB-EGF; assay: SCID mice transplanted subcutaneously with LNCaP cells transfected with HB-EGF, high cholesterol diet; format: in vivo; settings: for tumor growth and progression vs untreated controls: 10 mg/kg body weight in diet, started 2 weeks after implantation, 6-12 weeks of treatment, intact and castrated animals; for tumor volumes: progression and growth of the implanted tumors vs untreated controls: 30 mg/kg of body weight, started 2 weeks after tumor implantation, after 12 weeks, high cholesterol diet
# Description: Prostate cancer is a leading cause of mortality in males in North America with between 30,000 to 40,000 deaths per year in the United States. While chemotherapy has not been very efficacious in the treatment of prostate cancer, an alternative approach has been to target prostate cancer cell survival pathways, particularly the PI3 kinase/Akt/PTEN signaling axis, which has been identified as an important cell survival mechanism in PCa and other cancers. Recently it has been determined that membrane cholesterol is an important component of a mechanism that transfers survival signals from the cell exterior to the Akt1 serine-threonine kinase. It has also been shown recently that elevated serum cholesterol accelerates the growth, lowers the extent of cellular apotosis, and increases the level of Akt activation in prostate tumors within a murine prostate cancer model. Findings indicate that cholesterol plays a critical role in the ability of prostate cancer cells to resist apoptotic stimuli. The role of cholesterol in prostate cancer cell survival is so critical that drugs that bind cholesterol (polyene macrolides), extract cholesterol from membranes (cyclodextrin) or block cholesterol synthesis (statins) all alter essential membranes (lipid rafts) and reduce their capacity to regulate cell signaling. Cholesterol plays a crucial role in specifically regulating prostate cancer growth and survival. In these studies a unique prostate murine model system is used. This model features the human prostate adenocarcinoma cell line, LNCaP transfected with HB-EGF. LNCAP cells resemble typical prostate tumor cells in their general morphology, production of PSA and PTEN null status. Stable transfection with HB-EGF, a physiologically relevant EGFR ligand that originates in the prostatic stroma, permits LNCaP cells to form tumors in vivo in an androgen—independent manner. Subcutaneous implantation of these LNCaP cells into 4 quadrants of SCID mice results in rapid tumor growth in intact and castrated mice over an eight week period. […] Mice placed on a high cholesterol diet 4 weeks prior to tumor implantation are started on ezetimibe and SCH 48461 @ 30 mg/kg of body weight 2 weeks after tumor implantation.
# Subcutaneous implantations of LNCaP cells into 4 quadrants of SCID mice (2×10^6 cells in 150 ul Matrigel per injection site) results in rapid tumor growth in intact and castrated hosts on a high cholesterol diet over an 8 week period. Two weeks after tumor cell implantation, the animals are given ezetimibe in their diet at 10 mg/kg body weight.
# [5] = system: BIO 87.20 male Syrian hamster; assay: Ezetimibe treatment of BIO 87.20 male Syrian hamsters that develop spontaneous cystic prostatic hypertrophy and other tumors; format: in vivo
# Description: The BIO 87.20 male Syrian hamster is a well-known inbred line that develops, spontaneously, an age-dependent and genetic related cystic prostatic hypertrophy and is recognized in the art as an excellent model for human prostate disease. See, e.g., Homburger et al., 1970, Proc. Soc. Exptl. Biol. Med., 134:284-286; Homburger, 1972, Health Lab Sci., 9:103-111; Wang et al., 1976, Invest. Urol., 14:66-71. The BIO 87.20 strain of hamster develops multiple tumors after 12 months of age.
# The stromal hyperplasia and changes in the epithelial cells are also observed upon microscopic examination. […] The BIO 87.20 and BIO 1.5 strains of male Syrian hamster are employed in the ezetimibe studies presented herein. […] Schaffner et al., Lipids 16:835-840 (1981). The defect in cholesterol synthesis and the development of cystic prostatic hypertrophy in the BIO 87.20 male hamster is related.
# 16 BIO 1.5 and 48 BIO 87.20 male Syrian hamsters are obtained from Bio Breeders, Inc. Boston, Mass. Among these animals, 8 BIO 1.5 and 24 BIO 87.20 hamsters are 6 months of age, while the remainder, consisting of […] and 24 BIO 87.20 hamsters, are 12 months of age. The animals are housed in individual cages. All animals are given water ad libitum and are housed under automatic regime of 12 hours artificial light and 12 hours darkness. Food consumption is be monitored to ensure equivalent intake in all animals. The drug, ezetimibe, is powdered and mixed into ground PURINA® hamster chow. Concentrations of ezetimibe, in the food, is adjusted according to quantity of food intake per hamster per day and expressed as average μg of ezetimibe per kg body weight per day.
# The animals are divided into 8 experimental groups containing 8 animals each. The groups may be characterized as follows:
# Control BIO 1.5 and control and treated BIO 87.20 male Syrian hamsters, both 6 and 12 months of age, are used as follows. In the treated group of BIO 87.20 male Syrian hamsters, ezetimibe is administered as a powder in the diet. Treatment with doses of ezetimibe of 100 and 1000 micrograms per kilogram body weight of the BIO 87.20 animals is continued for 6 months. […] After 6 months of treatment the animals are sacrificed and the prostate glands excised, weighed and preserved for histopathological examination.
molecule,measurement,setting,value
"O=C1N(c2ccc(F)cc2)[C@H](c2ccc(O)cc2)C12CCC(O)(c1ccc(Cl)cc1)CC2 (single isomer, unassigned; (+)) [SCH 58053, (+)-7-(4-chlorophenyl)-2-(4-flourophenyl)-7-hydroxy-3R-(4-hydroxyphenyl)-2-azaspiro[3,5]nonan-1-one]",serum cholesterol levels,[1],do not generally affect serum cholesterol levels
same,elevated serum cholesterol levels,[1],do lower elevated serum cholesterol levels
CC[C@H](CC[C@@H](C)[C@H]1CC[C@H]2[C@@H]3CC=C4C[C@@H](O)CC[C@]4(C)[C@H]3CC[C@]12C)C(C)C [beta-sitosterol],effectiveness in the treatment of benign prostatic hyperplasia,[2],effective
candicidin,tumor initiation and progression vs untreated controls,[3],inhibit tumor initiation and progression
COc1ccc([C@@H]2[C@@H](CCCc3ccccc3)C(=O)N2c2ccc(OC)cc2)cc1 [SCH 48461],tumor growth and progression vs untreated controls,[4],significant inhibition of tumor growth and progression
same,tumor volumes: progression and growth of the implanted tumors vs untreated controls,[4],significantly inhibits the progression and growth of the implanted tumors
same,serum cholesterol levels,[1],do not generally affect serum cholesterol levels
same,elevated serum cholesterol levels,[1],do lower elevated serum cholesterol levels
"O=C1[C@H](CC[C@H](O)c2ccc(F)cc2)[C@@H](c2ccc(O)cc2)N1c1ccc(F)cc1 [ezetimibe, 1-(4-fluorophenyl)-(3R)-[3-(4-fluorophenyl)-(3S)-hydroxypropyl]-(45)-(4-hydroxyphenyl)-2-azetidinone]",tumor growth and progression vs untreated controls,[4],marked inhibition of tumor growth and progression
same,tumor volumes: progression and growth of the implanted tumors vs untreated controls,[4],significantly inhibits the progression and growth of the implanted tumors
same,serum cholesterol levels,[1],do not generally affect serum cholesterol levels
same,elevated serum cholesterol levels,[1],do lower elevated serum cholesterol levels
same,effect of higher dose on inhibition and reversal of the prostate enlargement,[5]; 1000 μg/kg body weight,greater effect on the inhibition and reversal of the prostate enlargement
same,"inhibitory effect on size increase of the prostate gland, higher vs lower dose","[5]; 1000 μg/kg body weight, beginning at 6 months of age, 6 months",greater inhibitory effect on size increase of the prostate gland
same,"level of effect on ventral prostate weights, higher vs lower dose","[5]; 1000 vs 100 μg/kg body weight, beginning at 12 months of age, 6 months",significantly greater at the higher dosage
same,tumors at the end of the experiment vs BIO 87.20 control animals of the same age,[5]; as referred to Example II,no tumors
same,cystic prostatic hypertrophy on histopathological examination vs untreated controls,"[5]; beginning at 6 months of age, after 6 months of treatment",marked reduction in the cystic prostatic hypertrophy
same,established prostatic enlargement (reversal),"[5]; beginning at 12 months of age, enlargement already present",reverses the prostatic enlargement
same,miscellaneous tumors other than that of the prostate gland,"[5]; oral 1000 μg/kg body weight, beginning at 12 months of age, 6 months",very few tumors are observed
same,development of cystic prostatic hypertrophy,[5]; oral route,inhibits the development of cystic prostatic hypertrophy
same,other cholesterol-associated tumor formation,"[5]; summary statement, dose not given",inhibits other cholesterol-associated tumor formation
same,histology of the prostates on histopathological examination,[5]; treated BIO 87.20 compared with BIO 1.5 prostate sections,more normal histology
same,prostatic enlargement / prostate gland volume vs untreated control BIO 87.20,"[5]; treatment beginning at 6 months of age, 6 months, 100 and 1000 μg/kg body weight in diet",inhibits prostatic enlargement; also recorded: marked inhibitory effect on the prostate gland volume
same,prostatic mass or volume / excised ventral prostate weights vs untreated BIO 87.20 controls,"[5]; treatment beginning at 12 months of age, 6 months, 100 and 1000 μg/kg body weight",reduces the prostatic mass or volume; also recorded: markedly reduced

# Reference: patent publication US7449453B2, “Compositions of ezetimibe and methods for the treatment of cholesterol-associated benign and malignant tumors” (Karykion Inc., priority 2002, dated 2008)
